Data from patent US20080200345A1, “HIGH THROUGHPUT METHOD TO IDENTIFY LIGANDS FOR CELL ATTACHMENT” (priority 2003, published 2008).

Test system: MC3T3-E1 cells
Experiment: ECM screen: adhesion of MC3T3-E1 osteoblast cells to immobilized adhesion ligands (nuclei count)
Format: cell-based
Conditions: best factors approach
Text: A statistical design was developed with special consideration of the surface chemistry requirements. In particular, in this experiment the scenario shown in FIG. 6 was used, wherein the overall adhesion ligand density was kept constant from well to well and only the adhesion ligand composition was allowed to change. In other words, the concentration of a single adhesion ligand could be different from well to well, but each well has the same amount of adhesion ligand immobilized overall. This scenario is further described above. An example of such design is shown in the spreadsheet in FIG. 7. The top row in FIG. 7 lists the 10 cell adhesion ligands used in this particular screen. The first column is a list of the experimental points that translate into a well in the 96-well plate, e.g., 52 wells in this case. The numbers in the spreadsheet are the actual volumes (in µL) of factor that is added to a particular well. In this particular design, factors get added to the wells at three volumes, e.g., 5 µL, 25 µL, or 50. mu.L. The total well volume in this case is 50 µL. Thus, for wells where one factor is added at 50 µL, the final well composition will comprise a single adhesion ligand covalently immobilized on the well surface. Accordingly, if 25 µL of a factor is added to a well, a second factor is added at 25 µL also, and the final well composition will comprise a mixture of two different cell adhesion ligands covalently immobilized on the well surface. When 5 µL of a factor are added, nine other factors are added at 5 µL each, as well, thus resulting in wells that comprise a mixture of all 10 cell adhesion ligands on the well surface. These experimental points containing all 10 adhesion ligands are called “mid points” and are an integral part of the statistical design in this example.
With reference now to FIG. 8, a 96-well plate layout is shown, which was translated from the particular statistical design shown in FIG. 7. In particular, the 96-well plate includes the well compositions indicated in FIG. 7, e.g., cell adhesion ligand combinations immobilized at the bottom of each well. In particular, the experimental runs in FIG. 7 correspond to rows/columns in FIG. 8, as follows: runs 1-10 in the design in FIG. 7 represent row B, columns 2-11, respectively on the plate layout in FIG. 8; runs 11-20 represent row C, columns 2-11; runs 21-30 represent row D, columns 2-11; runs 31-40 represent row E, columns 2-11; runs 41-50 represent row F, columns 2-11 and runs 51 and 52 represent row G, columns 2 and 3, respectively. As shown by the statistical design in FIG. 7 and the corresponding 96-well plate layout in FIG. 8, it is an embodiment of the present invention that, in addition to mixtures of agents, single agents can be placed in the receptacles. […]

Substance	Effect on cell count, mixture-model analysis (Ln(cell count-10% serum+1) vs. deviation from reference blend, FIG. 12)	Effect on cell count, mixture-model analysis (Ln(cell count-no serum+1) vs. deviation from reference blend, FIG. 11)
laminin	positive effect	increase the cell count
poly-L-lysine	diminishes	marginal effect
